Patent US12441689B2 (EpiVario, Inc., priority 2019, dated 2025)

What follows are molecules tested against human ACSS2 protein (Homo sapiens (Human), UniProt Q9NR19) (assay: ACSS2 Cell-Free Activity Assay (Cell-Free IC50)). Details: 10 nM human ACSS2 protein, 90 minutes at 37 C, pyrophosphatase-coupled, Biomol Green absorbance at 620 nm; read-out: ACSS2 Biochemical IC50.
Sequence of human ACSS2 protein (Q9NR19 whole entry): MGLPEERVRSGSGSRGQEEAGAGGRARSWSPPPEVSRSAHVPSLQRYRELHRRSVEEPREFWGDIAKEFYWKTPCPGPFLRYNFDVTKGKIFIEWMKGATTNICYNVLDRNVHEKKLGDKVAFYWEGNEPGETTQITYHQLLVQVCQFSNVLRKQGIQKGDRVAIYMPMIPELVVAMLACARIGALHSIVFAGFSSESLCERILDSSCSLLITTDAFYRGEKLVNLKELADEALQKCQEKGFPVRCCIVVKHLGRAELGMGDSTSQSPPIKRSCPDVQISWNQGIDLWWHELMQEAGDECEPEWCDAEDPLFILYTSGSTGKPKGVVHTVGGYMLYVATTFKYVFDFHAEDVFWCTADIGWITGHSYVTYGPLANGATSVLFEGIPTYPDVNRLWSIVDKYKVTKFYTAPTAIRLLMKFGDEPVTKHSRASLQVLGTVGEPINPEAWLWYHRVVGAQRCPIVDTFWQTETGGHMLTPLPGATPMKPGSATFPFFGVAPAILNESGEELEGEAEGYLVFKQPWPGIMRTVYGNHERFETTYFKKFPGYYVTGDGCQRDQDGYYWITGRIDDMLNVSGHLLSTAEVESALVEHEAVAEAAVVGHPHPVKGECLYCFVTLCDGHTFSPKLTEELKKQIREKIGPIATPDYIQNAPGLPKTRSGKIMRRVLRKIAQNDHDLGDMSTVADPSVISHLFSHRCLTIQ
From the text: ACSS2 Cell-Free Activity Assay (Cell-Free IC50)
`CCC(F)(F)c1cccc(NC(=O)c2n[nH]c(-c3ccc(OC)cc3)c2Br)c1` [Compound 233] was tested, and the IC50 was over 100 nM. Molecule `Cc1nc(-c2ccc(OC(F)F)c(-c3ccccn3)c2)ncc1C(=O)Nc1cccc(C(C)(F)F)c1` [Compound 120, N-(3-(1,1-difluoroethyl)phenyl)-2-(4-(difluoromethoxy)-3-(pyridin-2-yl)phenyl)-4-methylpyrimidine-5-carboxamide] has an IC50 of over 100 nM. Work on `COc1c(Cc2ccccc2)cc(N2N=C(C)C(C(=O)Nc3cccc(C(C)(F)F)c3)C2=O)cc1-c1ccccc1` (stereo not shown) [Compound 122, 1-(5-benzyl-6-methoxy-[1,1′-biphenyl]-3-yl)-N-(3-(1,1-difluoroethyl)phenyl)-3-methyl-5-oxo-4,5-dihydro-1H-pyrazole-4-carboxamide] yielded an IC50 of under 1 nM. For `Cc1nn(-c2ccc(OC(F)F)cc2)c(CC(C)C)c1C(=O)Nc1cccc(C(C)(F)F)c1` [Compound 150, N-(3-(1,1-difluoroethyl)phenyl)-1-(4-(difluoromethoxy)phenyl)-5-isobutyl-3-methyl-1H-pyrazole-4-carboxamide], the IC50 was over 100 nM. Molecule `Cc1cc(C(=O)Nc2cccc(C(C)(F)F)c2)nc(-c2ccc(OC(F)F)cc2)n1` [Compound 147, N-(3-(1,1-difluoroethyl)phenyl)-2-(4-(difluoromethoxy)phenyl)-6-methylpyrimidine-4-carboxamide] has an IC50 of 1 to 100 nM. With `CCC(F)(F)c1cccc(NC(=O)c2nc(-c3ccc(OC(F)F)c(-c4ccccc4)c3)cnc2C)c1` [Compound 117, 6-[4-(difluoromethoxy)-3-phenyl-phenyl]-N-[3-(1,1-difluoropropyl)phenyl]-3-methyl-pyrazine-2-carboxamide] the IC50 was over 100 nM. Work on `Cc1oc(-c2ccc(OC(F)F)c(-c3cccnc3)c2)nc1C(=O)Nc1cccc(C(C)(F)F)c1` [Compound 220, N-(3-(1,1-difluoroethyl)phenyl)-2-(4-(difluoromethoxy)-3-(pyridin-3-yl)phenyl)-5-methyloxazole-4-carboxamide] yielded an IC50 of over 100 nM. Work on `CC1=NN(c2ccc(OC(F)F)cc2)C(=O)C1(C)NC(=O)c1cccc(C(C)(F)F)c1` (stereo not shown) [Compound 198, 3-(1,1-difluoroethyl)-N-(1-(4-(difluoromethoxy)phenyl)-3,4-dimethyl-5-oxo-4,5-dihydro-1H-pyrazol-4-yl)benzamide] yielded an IC50 of over 100 nM. With `COc1c(C)cc(N2N=C(C)C(C(=O)Nc3cccc(C(C)(F)F)c3)C2=O)cc1-c1ccccc1` (stereo not shown) [Compound 180, N-[3-(1,1-difluoroethyl)phenyl]-1-(4-methoxy-3-methyl-5-phenyl-phenyl)-3-methyl-5-oxo-4H-pyrazole-4-carboxamide] the IC50 was 1 to 100 nM. For `CCC(F)(F)c1cccc(NC(=O)c2nc(-c3ccc(OC(F)F)cc3)[nH]c2C)c1` [Compound 215, 2-(4-(difluoromethoxy)phenyl)-N-(3-(1,1-difluoropropyl)phenyl)-5-methyl-1H-imidazole-4-carboxamide], the IC50 was over 100 nM. `CCC(F)(F)c1cccc(NC(=O)c2cc(C)nc(-c3ccc(OC(F)F)cc3)n2)c1` [Compound 137, 2-(4-(difluoromethoxy)phenyl)-N-(3-(1,1-difluoropropyl)phenyl)-6-methylpyrimidine-4-carboxamide] showed an IC50 of 1 to 100 nM. In the case of `Cc1nc(-c2ccc(OC(F)F)c(-c3ccccc3)c2)ncc1C(=O)Nc1cccc(C(C)(F)F)c1` [Compound 139, N-[3-(1,1-difluoroethyl)phenyl]-2-[4-(difluoromethoxy)-3-phenyl-phenyl]-4-methyl-pyrimidine-5-carboxamide], the IC50 is reported as over 100 nM. `CC1=NN(c2ccc(OC(F)F)cc2)C(=O)C1(C)C(=O)Nc1cccc(Cl)c1` (stereo not shown) [Compound 167, N-(3-chlorophenyl)-1-[4-(difluoromethoxy)phenyl]-3,4-dimethyl-5-oxo-pyrazole-4-carboxamide] was tested, and the IC50 was over 100 nM. `CCC(F)(F)c1cccc(NC(=O)c2cc(C)nc(-c3ccc(OC(F)F)cn3)c2)c1` [Compound 257, 5'-(difluoromethoxy)-N-(3-(1,1-difluoropropyl)phenyl)-6-methyl-[2,2′-bipyridine]-4-carboxamide] gave an IC50 of over 100 nM. `CCC(C)Oc1ccc(N2N=C(C)C(F)(C(=O)Nc3cccc(C(C)(F)F)c3)C2=O)cc1` (stereo not shown) [Compound 207, N-[3-(1,1-difluoroethyl)phenyl]-4-fluoro-3-methyl-5-oxo-1-(4-sec-butoxyphenyl)pyrazole-4-carboxamide] was tested, and the IC50 was under 1 nM. Molecule `Cc1nn(-c2ccc(OC(F)F)cc2)c(C2CCCC2)c1C(=O)Nc1cccc(C(C)(F)F)c1` [Compound 154, 5-cyclopentyl-N-[3-(1,1-difluoroethyl)phenyl]-1-[4-(difluoromethoxy)phenyl]-3-methyl-pyrazole-4-carboxamide] has an IC50 of over 100 nM. `CCc1c(C(=O)Nc2cccc(C(C)(F)F)c2)c(C)nn1-c1ccc(OC(F)F)cc1` [Compound 156, N-(3-(1,1-difluoroethyl)phenyl)-1-(4-(difluoromethoxy)phenyl)-5-ethyl-3-methyl-1H-pyrazole-4-carboxamide] gave an IC50 of over 100 nM. Molecule `CCC(F)(F)c1cccc(NC(=O)c2c(C)nn(-c3ccc(OC)cc3)c2Cl)c1` [Compound 231, 5-chloro-N-(3-(1,1-difluoropropyl)phenyl)-1-(4-methoxyphenyl)-3-methyl-1H-pyrazole-4-carboxamide] has an IC50 of over 100 nM. In the case of `CC1=NN(c2ccc(OC(F)F)cc2)C(=O)[C@@]1(C)C(=O)Nc1cccc(C(C)(F)F)c1` [Compound 169, (4R)—N-(3-(1,1-difluoroethyl)phenyl)-1-(4-(difluoromethoxy)phenyl)-3,4-dimethyl-5-oxo-4,5-dihydro-1H-pyrazole-4-carboxamide], the IC50 is reported as over 100 nM. Work on `CCC(F)(F)c1cccc(NC(=O)c2cc(-c3ccc(OC(F)F)cc3)[nH]c2C)c1` [Compound 216, 5-[4-(difluoromethoxy)phenyl]-N-[3-(1,1-difluoropropyl)phenyl]-2-methyl-1H-pyrrole-3-carboxamide] yielded an IC50 of over 100 nM. In the case of `Cc1nn(-c2ccc(OC(F)F)cc2)c(N(C)C)c1C(=O)Nc1cccc(C(C)(F)F)c1` [Compound 168, N-(3-(1,1-difluoroethyl)phenyl)-1-(4-(difluoromethoxy)phenyl)-5-(dimethylamino)-3-methyl-1H-pyrazole-4-carboxamide], the IC50 is reported as 1 to 100 nM. Molecule `Cc1nc(-c2ccc(OC(F)F)c(-c3ccccn3)c2)oc1C(=O)Nc1cccc(C(C)(F)F)c1` [Compound 213, N-(3-(1,1-difluoroethyl)phenyl)-2-(4-(difluoromethoxy)-3-(pyridin-2-yl)phenyl)-4-methyloxazole-5-carboxamide] has an IC50 of over 100 nM. `CCC(F)(F)c1cccc(NC(=O)C2C(=O)N(c3cc(Cc4ccc(Cl)cc4)c(OC)c(-c4ccccc4)c3)N=C2C)c1` (stereo not shown) [Compound 236, 1-(5-(4-chlorobenzyl)-6-methoxy-[1,1′-biphenyl]-3-yl)-N-(3-(1,1-difluoropropyl)phenyl)-3-methyl-5-oxo-4,5-dihydro-1H-pyrazole-4-carboxamide] showed an IC50 of 1 to 100 nM. Work on `CCC(F)(F)c1cccc(NC(=O)c2c(C)nn(-c3ccc(OC)cc3)c2C(=O)OC)c1` [Compound 234, methyl 4-((3-(1,1-difluoropropyl)phenyl)carbamoyl)-1-(4-methoxyphenyl)-3-methyl-1H-pyrazole-5-carboxylate] yielded an IC50 of over 100 nM. `CCC(F)(F)c1cccc(NC(=O)C2C(=O)N(c3cc(CC4CCCCC4)c(OC)c(-c4ccccc4)c3)N=C2C)c1` (stereo not shown) [Compound 128, 1-(5-(cyclohexylmethyl)-6-methoxy-[1,1′-biphenyl]-3-yl)-N-(3-(1,1-difluoropropyl)phenyl)-3-methyl-5-oxo-4,5-dihydro-1H-pyrazole-4-carboxamide] was tested, and the IC50 was 1 to 100 nM. `Cc1nn(-c2cc(-c3ccccc3)c(OC(F)F)c(-c3ccccc3)c2)cc1C(=O)Nc1cccc(C(C)(F)F)c1` [Compound 176, N-(3-(1,1-difluoroethyl)phenyl)-1-(2′-(difluoromethoxy)-[1,1′:3′,1″-terphenyl]-5′-yl)-3-methyl-1H-pyrazole-4-carboxamide] showed an IC50 of 1 to 100 nM. `COc1ccc(-c2ncc(C)c(C(=O)Nc3cccc(C(C)(F)F)c3)n2)cc1` [Compound 247, N-(3-(1,1-difluoroethyl)phenyl)-2-(4-methoxyphenyl)-5-methylpyrimidine-4-carboxamide] gave an IC50 of 1 to 100 nM. For `CCC(F)(F)c1cccc(NC(=O)c2nc(-c3ccc(OC(F)F)cn3)[nH]c2C)c1` [Compound 227, 2-(5-(difluoromethoxy)pyridin-2-yl)-N-(3-(1,1-difluoropropyl)phenyl)-5-methyl-1H-imidazole-4-carboxamide], the IC50 was over 100 nM. `Cc1ncc(-c2ccc(OC(F)F)cc2)nc1C(=O)Nc1cccc(C(C)(F)F)c1` [Compound 126, N-(3-(1,1-difluoroethyl)phenyl)-6-(4-(difluoromethoxy)phenyl)-3-methylpyrazine-2-carboxamide] gave an IC50 of over 100 nM. `CCC(F)(F)c1cccc(NC(=O)c2cnc(-c3ccc(OC(F)F)c(-c4ccccc4)c3)nc2C)c1` [Compound 138, 2-[4-(difluoromethoxy)-3-phenyl-phenyl]-N-[3-(1,1-difluoropropyl)phenyl]-4-methyl-pyrimidine-5-carboxamide] was tested, and the IC50 was over 100 nM. With `CCC(F)(F)c1cccc(NC(=O)c2n[nH]c(-c3ccc(OC)cc3)c2C(C)=O)c1` [Compound 232, 4-acetyl-N-(3-(1,1-difluoropropyl)phenyl)-5-(4-methoxyphenyl)-1 H-pyrazole-3-carboxamide] the IC50 was over 100 nM. With `CCC(F)(F)c1cccc(NC(=O)c2nc(-c3ccc(OC(F)F)cc3)cnc2C)c1` [Compound 125, 6-(4-(difluoromethoxy)phenyl)-N-(3-(1,1-difluoropropyl)phenyl)-3-methylpyrazine-2-carboxamide] the IC50 was over 100 nM. `CCC(F)(F)c1cccc(NC(=O)c2c(C)[nH]c(-c3ccc(OC)cc3)[n+]2[O-])c1` [Compound 248, 4-((3-(1,1-difluoropropyl)phenyl)carbamoyl)-2-(4-methoxyphenyl)-5-methyl-1H-imidazole 3-oxide] showed an IC50 of under 1 nM. Molecule `CCc1c(C(=O)Nc2cccc(C(C)(F)F)c2)c(C)nn1-c1ccc(OC(F)F)c(-c2ccccc2)c1` [Compound 151, N-[3-(1,1-difluoroethyl)phenyl]-1-[4-(difluoromethoxy)-3-phenyl-phenyl]-5-ethyl-3-methyl-pyrazole-4-carboxamide] has an IC50 of over 100 nM.
